Test results published in patent US20160184338A1, “Bioactive Alkaloid Compositions and Their Medical Uses” (Asiros A/S, priority 2013, published 2016).
“Also recorded” adds a separate entry of the source.

Tests used:
[1] = tested on: BKS Cg-Lepr db/Lepr db mice; assay: Hypoglycemic effect in NIDDM mice; assay type: in vivo, mouse; conditions: oral daily 14 days (RAP4 2000 mg/kg, metformin 300 mg/kg), day 14 post dosing
Procedure: Male non-insulin dependent diabetic mellitus (NIDDM) mice (BKS Cg-Lepr db/Lepr db) weighing 50+/−5 g were used at age of 12-13 weeks. A daily oral dose of 2000 mg/kg of RAP4 corresponding to corresponding to 112 μg/kg of Ribetril A and 492 μg/kg total Ribetrils as well as 240 μg/kg total Glucoindols was administered orally at a dosing volume of 10 mL/kg to 12 animals for a total of 14 consecutive days. The positive control of metformin (300 mg/kg) and vehicle (2% Tween 80) were each administered orally at a dosing volume of 10 mL/kg to groups of 6 animals once daily for a total of 14 consecutive days. Serum glucose levels were measured by means of an automated analyzer (TBA-120FR, Toshiba) and serum insulin by ELISA at zero min (pre-treatment) on Day 1, and at 90 min after the daily dosing (post-treatment) on Day 7 and Day 14.

[2] = tested on: hyperlipidemic guinea pigs; assay: Hypocholesterolemic effect in guinea pigs on high fat diet; assay type: in vivo, guinea pig; conditions: 10 mg/kg oral daily, 28 days
Procedure: Male Dunkin-Hartley guinea pigs weighing 300+/−30 g were acclimated one week before the in-life phase of the experiment. The study diet (Research Diets Inc, New Brunswick, N.J., USA) contained 15% corn oil and 0.25% cholesterol. A daily oral dose of 2000 mg/kg of RAP2 corresponding 9 μg/kg of Ribetril A and 82 μg/kg total Ribetrils as well as 632 μg/kg total Glucoindols was administered orally at a dosing volume of 10 mL/kg. A daily oral dose of 2000 mg/kg of RAP4 corresponding to 112 μg/kg of Ribetril A and 492 μg/kg total Ribetrils as well as 240 μg/kg total Glucoindols was administered orally at a dosing volume of 10 mL/kg. The positive control atorvastatin (10 mg/kg) and vehicle (0.5% methylcellulose) were each administered orally at a dosing volume of 10 mL/kg. […]
After fasting overnight, blood samples were obtained from the retro-orbital sinus of each animal 5 min before initial test substance and/or vehicle administration (pre-treatment) and 24 hours after dosing on days 14 and 28 (post-treatment). The serum total cholesterol (TC), low density lipoprotein cholesterol (LDL-C), high density lipoprotein cholesterol (HDL-C) and triglycerides (TG) were determined by an enzymatic method (Wako total cholesterol, LDL-C, HDL-C & TG diagnostic kit and Toshiba Automatic Analyzer Model TAB-120FR).

PDE5A = molecular target: T1, PDE5A (Homo sapiens, UniProt O76074); assay: PDE5A Assay Kit, fluorescence polarization; assay type: biochemical; conditions: PDE5
T1 construct: purchased BSP Bioscience 60350
Procedure: Inhibition of PDE5 blocks hydrolysis of cGMP, thereby increasing levels of cGMP. The PDE5A Assay Kit is designed for identification of PDE5A inhibitors using fluorescence polarization. The assay is based on the binding of a fluorescent nucleotide monophosphate generated by PDE5A to the binding agent.
The assay was performed according to the protocol of the PDE5A assay provided by BSP Bioscience [BSP Bioscience, Data sheet PDE5A Assay Kit, Catalog #60350].
(§1) A fluorescence plate reader (Appliskan, Thermo Scientific) was used to detect fluorescence emission signals according to the following parameters:
Test Compounds • Selected alkaloids of the invention prepared in example 1 were tested in 5 times dilutions to establish the 50% inhibitory concentration (IC-50).

PDE4A1A = molecular target: T2, PDE4A1A (Homo sapiens, UniProt P27815); assay: PDE4A1A Assay Kit, fluorescence polarization; assay type: biochemical; conditions: PDE4
T2 construct: purchased BSP Bioscience 60340
Procedure: Inhibition of PDE4 blocks hydrolysis of cAMP, thereby increasing levels of cAMP. The PDE4A1A Assay Kit is designed for identification of PDE4A1A inhibitors using fluorescence polarization. The assay is based on the binding of fluorescent AMP generated by PDE4A1A to the binding agent.
The assay was performed according to the protocol of the PDE4A1A assay provided by BSP Bioscience [BSP Bioscience, Data sheet PDE4A1A Assay Kit, Catalog #60340].
as §1
(§2) Selected alkaloids of the invention prepared in example 1 were tested in 5 times dilutions to establish the 50% inhibitory concentration (IC-50).

IkappaB kinase β (IKK-β) = molecular target: T3, IkappaB kinase β (IKK-β) (Homo sapiens, UniProt O14920); assay: IKK-β inhibition, Z'-LYTE Kinase Assay Kit-Ser/Thr 5 Peptide (FRET); assay type: biochemical
T3 construct: purchased Invitrogen
T3 sequence (O14920 1-756): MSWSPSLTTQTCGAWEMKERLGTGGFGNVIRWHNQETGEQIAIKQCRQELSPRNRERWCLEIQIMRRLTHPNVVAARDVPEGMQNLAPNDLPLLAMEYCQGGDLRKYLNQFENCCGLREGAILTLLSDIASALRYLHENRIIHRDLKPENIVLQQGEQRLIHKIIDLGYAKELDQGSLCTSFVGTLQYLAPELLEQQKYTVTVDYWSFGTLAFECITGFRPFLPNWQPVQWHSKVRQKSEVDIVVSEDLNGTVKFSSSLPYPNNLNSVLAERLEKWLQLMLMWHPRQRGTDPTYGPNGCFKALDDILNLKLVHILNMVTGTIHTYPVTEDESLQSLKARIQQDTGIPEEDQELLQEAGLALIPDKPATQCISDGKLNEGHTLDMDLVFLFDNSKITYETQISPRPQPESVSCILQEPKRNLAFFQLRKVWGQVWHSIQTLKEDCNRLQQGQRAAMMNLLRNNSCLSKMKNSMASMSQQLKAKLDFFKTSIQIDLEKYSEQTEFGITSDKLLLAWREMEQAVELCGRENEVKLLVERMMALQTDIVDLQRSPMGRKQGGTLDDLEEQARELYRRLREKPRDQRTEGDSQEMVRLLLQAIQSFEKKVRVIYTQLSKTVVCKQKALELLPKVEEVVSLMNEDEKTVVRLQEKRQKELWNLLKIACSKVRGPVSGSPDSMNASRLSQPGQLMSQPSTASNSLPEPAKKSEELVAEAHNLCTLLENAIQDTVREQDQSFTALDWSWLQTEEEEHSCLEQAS
Procedure: IKK-β phosphorylates the inhibitory IκB protein associated with NE-κB. Phosphorylation results in the dissociation of IκB from NE-κB, allowing NE-κB to migrate into the cell nucleus where it can activate the transcription of at least 150 genes. The Z9-LYTE™ Kinase Assay Kit-Ser/Thr 5 Peptide is designed to screen for potential IKK-β inhibitory effect using fluorescence resonance energy transfer (FRET) between coumarin and fluorescein for detection by a fluorometer.
The assay was performed according to Z9-LYTE™ KINASE ASSAY KIT-SER/THR 5 PEPTIDE protocol provided by Invitrogen [Invitrogen, Z′-LYTE™ Kinase Assay Kit-Ser/Thr 5 Peptide Protocol, O-062187-r1 US 0405]. Based on the IKK-β certificate of the kit, a kinase concentration of 500 ng/ml was chosen. Km for ATP 9.4 μM was chosen according to an optimization for the LanthaScreen™ kinase assay [http://tools.invitrogen.com/content/sfs/manuals/IKBKB_%28IKK_beta%29_LanthaScreen_Activity.pdf].
as §1, §2

T2 sequence (P27815 1-647 isoform P27815-4): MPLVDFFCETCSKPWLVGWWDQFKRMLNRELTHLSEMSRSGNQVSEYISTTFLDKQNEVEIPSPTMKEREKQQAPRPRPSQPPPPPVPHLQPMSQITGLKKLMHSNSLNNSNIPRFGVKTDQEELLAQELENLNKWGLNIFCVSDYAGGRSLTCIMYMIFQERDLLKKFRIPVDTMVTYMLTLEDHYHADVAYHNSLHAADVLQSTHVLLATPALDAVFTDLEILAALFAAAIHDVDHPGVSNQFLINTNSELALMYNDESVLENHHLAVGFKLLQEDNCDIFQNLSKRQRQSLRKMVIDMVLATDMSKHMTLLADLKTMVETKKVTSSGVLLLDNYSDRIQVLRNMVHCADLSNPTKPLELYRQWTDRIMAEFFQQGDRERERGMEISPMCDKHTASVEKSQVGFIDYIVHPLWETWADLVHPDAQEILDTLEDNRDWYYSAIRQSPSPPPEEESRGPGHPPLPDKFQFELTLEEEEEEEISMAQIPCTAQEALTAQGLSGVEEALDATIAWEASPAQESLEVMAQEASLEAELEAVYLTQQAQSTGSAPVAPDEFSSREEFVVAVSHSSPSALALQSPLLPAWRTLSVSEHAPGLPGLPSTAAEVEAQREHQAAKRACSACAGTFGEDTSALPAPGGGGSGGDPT

## CN(C)C(=N)N=C(N)N [metformin]
[1]
  serum glucose levels relative to vehicle control: significant decrease

## CC(C)c1c(C(=O)Nc2ccccc2)c(-c2ccccc2)c(-c2ccc(F)cc2)n1CC[C@@H](O)C[C@@H](O)CC(=O)O [atorvastatin]
[2]
  effect on triglycerides: did not significantly reduce triglycerides; also recorded: did not display a significant decreasing effect on triglyceride levels

## N#C/C(=C\CO[C@@H]1O[C@H](CO)[C@@H](O)[C@H](O)[C@H]1O)COC(=O)/C=C/c1ccc(O)c(O)c1 [Ribetril A, (E)-(E)-2-cyano-4-(((2R,3R,4S,5S,6R)-3,4,5-trihydroxy-6-(hydroxymethyl)tetrahydro-2H-pyran-2-yl)oxy)but-2-en-1-yl 3-(3,4-dihydroxyphenyl)acrylate]
PDE5A
  times lower IC-50 as compared to Ribetril B: 3 times
  times lower IC-50 as compared to Ribetril C: 8 times
PDE4A1A
  times lower IC-50 as compared to Ribetril B: 5 times
  times lower IC-50 as compared to Ribetril C: 20 times
IkappaB kinase β (IKK-β)
  times lower IC-50 as compared to Ribetril B: 48 times
  times lower IC-50 as compared to Ribetril C: 118 times
